# In US6126909A, “Process and apparatus for the production of BI-212 and a use thereof” (Arch Development Corporation, priority 1999, dated 2000):
# Legend:
# [1] = system: Ehrlich-Lettre Ascites carcinoma cells; test: In vitro irradiation survival (clonogenic), monolayer; assay type: cell-based; details: dose increment reducing survival to 37 percent
# Procedure: In vitro studies were carried out using three well known cell lines, the cells from which were exposed to radiation from: (1) an X-ray source; (2) P-32 chromic phosphate; and (3) Bi-212 chloride. The three cell lines that were used are V-79, which is a Chinese hamster lung fibroblast, Ehrlich-Lettre Ascites carcinoma (ATCC CCL 77), which is an ascites producing -tumor, and NIH:OVCAR-3 (ATCC HTB 161), which is a human ovarian adenocarcinoma. These well known cell lines are predictive of what happens in vivo. The cells were grown as monolayers and into spheroid formations and subsequently irradiated, as described herein. […]
# The cell lines were also irradiated using Bi-212. […] The filter was purged with 1 ml of distilled deionized water, and the radioactivity was assayed using a calibrated 3×3-in. […]
# Cells were exposed over a period of four hours. The dose (D) per microCurie was calculated and corrected for decay as follows: [formula] where V=volume in milliliters, and […]
# Following plating, survival measurements were taken for each of the irradiated cell samples. […] The plates were then stained with crystal violet and colonies greater than 50 cells were scored. The surviving fraction was then determined.
# Intrinsic radiosensitivity (Do) was calculated from the survival curves. […]
# [2] = system: Ehrlich-Lettre Ascites carcinoma cells; test: Efficacy study in mice inoculated with carcinoma cells; assay type: in vivo, mouse; details: 100 μCi i.p.
# Procedure: In vivo studies were conducted to determine the distribution of Bi-212 produced using the above-noted process and to compare the Bi-212 distribution to the distribution of Pb-212 ferrous hydroxide in colloidal form. The in vivo studies were conducted using white, female New Zealand rabbits weighing about 4.5 kilograms ([…]) each. Studies were also conducted using rabbits to determine the toxicity levels, e.g., the maximum tolerated dose. Efficacy studies were conducted using 25 gram (gm) female Swiss-Webster mice inoculated with Ehrlich-Lettre Ascites carcinoma cells.
# Efficacy studies were conducted using groups of five 25 gm female Swiss-Webster mice that were intraperitoneally inoculated with 10^6 Ehrlich-Lettre Ascites carcinoma cells. The mice were subsequently instilled with 100 μCi of Bi-212 in up to 1 cc normal saline 48 hours after inoculation with the Ehrlich-Lettre Ascites carcinoma cells. The mice were sacrificed at one-half hour, one hour and 3 hours after instillation with the Bi-212 solution. Control groups were inoculated with the Ehrlich-Lettre Ascites carcinoma cells only.
# [3] = Solubility of Bi-212 at various pH values (0.22 μ filter); assay type: physicochemical
# Procedure: The solubility was measured by passing the solution through a 0.22 μ Nalgene® filter and measuring the activity of the resulting solution and the activity of the filter.
# [4] = Retention of chelated and non-chelated Bi-212 in peritoneal fluid; assay type: in vivo, rabbit; details: rabbits, 3 hours after instillation
# Procedure: Groups of rabbits were instilled with a varying amounts (correlating to varying activities) of Bi-212 that were prepared in accordance with the before-described process, neutralized to pH values of between 5.0 and 7.4, and had added thereto a quantity of normal saline to make a 200 cc sample. To compare the distribution of Bi-212, Pb-212 ferrous hydroxide was prepared in accordance with known methods. Rotmensch et al., Gynecol. Oncol., 35:297-300 (1989). Groups of rabbits were also instilled with the Pb-212 ferrous hydroxide preparation.
# Of the groups of rabbits instilled with the Bi-212 solution, a rabbit was imaged and necropsied at each of one-half hour, one hour and three hours after instillation. The percent injected activity (%IA) in each organ was measured to determine the distribution of the Bi-212(Table 6). To determine whether chelating to DTPA improved the retention of Bi-212 in the peritoneal fluid, a group of rabbits was instilled with Bi-212 DTPA, and was imaged and necropsied at three hours following instillation. The percent activity remaining in the peritoneal fluid was measured.
structure (smiles),measurement,setting,value
"[212Bi] [Bi-212, bismuth-212]",D0 (intrinsic radiosensitivity),[1],0.65 Gy
same,Median survival time,"[2]; 48 hours after 10^6 cells, after treatment",82 days
same,Cure with no evidence of disease,[2]; 3 months later,40%
same,Maintained in solution,[3]; acidic pH,maintained in solution at an acidic pH value
same,Activity in solution,[3]; pH 6,5.55 mCi
same,Activity on filter,[3]; pH 6,0.24 mCi
same,Percent activity in solution,[3]; pH 6,96%
same,Percent activity on filter,[3]; pH 6,4%
same,Activity in solution,[3]; pH 7,3.24 mCi
same,Activity on filter,[3]; pH 7,0.023 mCi
same,Percent activity in solution,[3]; pH 7,94%
same,Percent activity on filter,[3]; pH 7,6%
same,Activity in solution,[3]; pH 8,1.90 mCi
same,Activity on filter,[3]; pH 8,0.50 mCi
same,Percent activity in solution,[3]; pH 8,83%
same,Percent activity on filter,[3]; pH 8,17%
same,Activity in solution,[3]; pH 9,0.65 mCi
same,Activity on filter,[3]; pH 9,1.35 mCi
same,Percent activity in solution,[3]; pH 9,32%
same,Percent activity on filter,[3]; pH 9,68%
same,Solubility dependence on pH,[3]; radio-impurity-free solution,solubility increasing with a decrease in pH value
same,% activity in blood volume,[4],4.5%
same,% activity in peritoneal fluid,[4],80%
same,% activity in urine,[4],6.0%
